ChEMBL document CHEMBL1127385, “Synthesis and diuretic activity of alkyl- and arylguanidine analogs of N,N'-dicyclohexyl-4-morpholinecarboxamidine in rats and dogs” (J Med Chem, 1994)

Legend:
Canis familiaris [1] = assay: Total electrolytic excretion of potassium in urine of dogs after peroral administration of 3.76 uM/Kg of drug; type: ADME, organism-based, Canis lupus familiaris; conditions: dog, in vivo, po
Rattus norvegicus [2] = assay: Tested for the diuretic activity by measuring the urinary volume after peroral administering 113 uM/Kg of drug in rats; type: ADME, organism-based, Urine; conditions: in vivo, po
Rattus norvegicus [3] = assay: Total electrolytic excretion of sodium in urine of rats after peroral administration of 11.3 uM/Kg of drug; type: ADME, organism-based; conditions: in vivo, po
Rattus norvegicus [4] = assay: Total electrolytic excretion of sodium in urine of rats after peroral administration of 0 uM/Kg of drug; type: ADME, organism-based; conditions: in vivo, po
Rattus norvegicus [5] = assay: Total electrolytic excretion of sodium in urine of rats after peroral administration of 3.76 uM/Kg of drug; type: ADME, organism-based; conditions: in vivo, po
Rattus norvegicus [6] = assay: Total electrolytic excretion of sodium in urine of rats after peroral administration of 37.6 uM/Kg of drug; type: ADME, organism-based; conditions: in vivo, po
Rattus norvegicus [7] = assay: Total electrolytic excretion of chlorine in urine of rats after peroral administration of 11.3 uM/Kg of drug; type: ADME, organism-based; conditions: in vivo, po
Rattus norvegicus [8] = assay: Tested for the diuretic activity by measuring the urinary volume after peroral administering 11.3 uM/Kg of drug in rats; type: ADME, organism-based, Urine; conditions: in vivo, po
Rattus norvegicus [9] = assay: Total electrolytic excretion of sodium in urine of rats after peroral administration of 1.13 uM/Kg of drug; type: ADME, organism-based; conditions: in vivo, po
Rattus norvegicus [10] = assay: Tested for the diuretic activity by measuring the urinary volume after peroral administering 3.76 uM/Kg of drug in rats; type: ADME, organism-based, Urine; conditions: in vivo, po
Rattus norvegicus [11] = assay: Total electrolytic excretion of chlorine in urine of rats after peroral administration of 37.6 uM/Kg of drug; type: ADME, organism-based; conditions: in vivo, po
Rattus norvegicus [12] = assay: Total electrolytic excretion of potassium in urine of rats after peroral administration of 37.6 uM/Kg of drug; type: ADME, organism-based; conditions: in vivo, po
Rattus norvegicus [13] = assay: Tested for the diuretic activity by measuring the urinary volume after peroral administering 37.6 uM/Kg of drug in rats; type: ADME, organism-based, Urine; conditions: in vivo, po
Canis familiaris [14] = assay: Tested for the diuretic activity by measuring the urinary volume after peroral administering 3.76 uM/Kg of drug in dogs; type: ADME, organism-based, Canis lupus familiaris, Urine; conditions: dog, in vivo, po
Canis familiaris [15] = assay: Ratio of Total electrolytic excretion of sodium and potassium in urine of dogs after peroral administration of 37.6 uM/Kg of drug; type: ADME, organism-based, Canis lupus familiaris; conditions: dog, in vivo, po
Rattus norvegicus [16] = assay: Total electrolytic excretion of chlorine in urine of rats after peroral administration of 1.13 uM/Kg of drug; type: ADME, organism-based; conditions: in vivo, po
Rattus norvegicus [17] = assay: Total electrolytic excretion of chlorine in urine of rats after peroral administration of 113 uM/Kg of drug; type: ADME, organism-based; conditions: in vivo, po
Canis familiaris [18] = assay: Ratio of Total electrolytic excretion of sodium and potassium in urine of dogs after peroral administration of 11.3 uM/Kg of drug; type: ADME, organism-based, Canis lupus familiaris; conditions: dog, in vivo, po
Canis familiaris [19] = assay: Ratio of Total electrolytic excretion of sodium and potassium in urine of dogs after peroral administration of 1.13 uM/Kg of drug; type: ADME, organism-based, Canis lupus familiaris; conditions: dog, in vivo, po
Rattus norvegicus [20] = assay: Total electrolytic excretion of chlorine in urine of rats after peroral administration of 0 uM/Kg of drug; type: ADME, organism-based; conditions: in vivo, po
Rattus norvegicus [21] = assay: Total electrolytic excretion of potassium in urine of rats after peroral administration of 1.13 uM/Kg of drug; type: ADME, organism-based; conditions: in vivo, po
Rattus norvegicus [22] = assay: Total electrolytic excretion of potassium in urine of rats after peroral administration of 0 uM/Kg of drug; type: ADME, organism-based; conditions: in vivo, po
Rattus norvegicus [23] = assay: Total electrolytic excretion of potassium in urine of rats after peroral administration of 11.3 uM/Kg of drug; type: ADME, organism-based; conditions: in vivo, po
Canis familiaris [24] = assay: Total electrolytic excretion of chlorine in urine of dogs after peroral administration of 3.76 uM/Kg of drug; type: ADME, organism-based, Canis lupus familiaris; conditions: dog, in vivo, po
Rattus norvegicus [25] = assay: Total electrolytic excretion of potassium in urine of rats after peroral administration of 113 uM/Kg of drug; type: ADME, organism-based; conditions: in vivo, po
Rattus norvegicus [26] = assay: Total electrolytic excretion of chlorine in urine of rats after peroral administration of 3.76 uM/Kg of drug; type: ADME, organism-based; conditions: in vivo, po
Canis familiaris [27] = assay: Ratio of Total electrolytic excretion of sodium and potassium in urine of dogs after peroral administration of 0 uM/Kg of drug; type: ADME, organism-based, Canis lupus familiaris; conditions: dog, in vivo, po
Rattus norvegicus [28] = assay: Total electrolytic excretion of potassium in urine of rats after peroral administration of 3.76 uM/Kg of drug; type: ADME, organism-based; conditions: in vivo, po
Rattus norvegicus [29] = assay: Tested for the diuretic activity by measuring the urinary volume after peroral administering 0 uM/Kg of drug in rats; type: ADME, organism-based, Urine; conditions: in vivo, po
Rattus norvegicus [30] = assay: Total electrolytic excretion of sodium in urine of rats after peroral administration of 113 uM/Kg of drug; type: ADME, organism-based; conditions: in vivo, po
Canis familiaris [31] = assay: Total electrolytic excretion of sodium in urine of dogs after peroral administration of 3.76 uM/Kg of drug; type: ADME, organism-based, Canis lupus familiaris; conditions: dog, in vivo, po
Rattus norvegicus [32] = assay: Tested for the diuretic activity by measuring the urinary volume after peroral administering 1.13 uM/Kg of drug in rats; type: ADME, organism-based, Urine; conditions: in vivo, po
Canis familiaris [33] = assay: Ratio of Total electrolytic excretion of sodium and potassium in urine of dogs after peroral administration of 113 uM/Kg of drug; type: ADME, organism-based, Canis lupus familiaris; conditions: dog, in vivo, po
Rattus norvegicus [34] = assay: Tested for the diuretic activity by measuring the urinary volume after peroral administering 259 uM/Kg of drug in rats; type: ADME, organism-based, Urine; conditions: in vivo, po
Rattus norvegicus [35] = assay: Total electrolytic excretion of chlorine in urine of rats after peroral administration of 25.9 uM/Kg of drug; type: ADME, organism-based; conditions: in vivo, po
Rattus norvegicus [36] = assay: Tested for the diuretic activity by measuring the urinary volume after peroral administering 77.5 uM/Kg of drug in rats; type: ADME, organism-based, Urine; conditions: in vivo, po
Rattus norvegicus [37] = assay: Ratio of Total electrolytic excretion of sodium and potassium in urine of rats after peroral administration of 25.9 uM/Kg of drug; type: ADME, organism-based; conditions: in vivo, po
Rattus norvegicus [38] = assay: Total electrolytic excretion of potassium in urine of rats after peroral administration of 259 uM/Kg of drug; type: ADME, organism-based; conditions: in vivo, po
Rattus norvegicus [39] = assay: Tested for the diuretic activity by measuring the urinary volume after peroral administering 25.9 uM/Kg of drug in rats; type: ADME, organism-based, Urine; conditions: in vivo, po
Rattus norvegicus [40] = assay: Ratio of Total electrolytic excretion of sodium and potassium in urine of rats after peroral administration of 77.7 uM/Kg of drug; type: ADME, organism-based; conditions: in vivo, po
Rattus norvegicus [41] = assay: Total electrolytic excretion of potassium in urine of rats after peroral administration of 25.9 uM/Kg of drug; type: ADME, organism-based; conditions: in vivo, po
Rattus norvegicus [42] = assay: Total electrolytic excretion of chlorine in urine of rats after peroral administration of 259 uM/Kg of drug; type: ADME, organism-based; conditions: in vivo, po
Rattus norvegicus [43] = assay: Total electrolytic excretion of sodium in urine of rats after peroral administration of 25.9 uM/Kg of drug; type: ADME, organism-based; conditions: in vivo, po
Rattus norvegicus [44] = assay: Total electrolytic excretion of chlorine in urine of rats after peroral administration of 77.5 uM/Kg of drug; type: ADME, organism-based; conditions: in vivo, po
Rattus norvegicus [45] = assay: Total electrolytic excretion of sodium in urine of rats after peroral administration of 259 uM/Kg of drug; type: ADME, organism-based; conditions: in vivo, po
Rattus norvegicus [46] = assay: Total electrolytic excretion of sodium in urine of rats after peroral administration of 77.5 uM/Kg of drug; type: ADME, organism-based; conditions: in vivo, po
Rattus norvegicus [47] = assay: Total electrolytic excretion of potassium in urine of rats after peroral administration of 77.5 uM/Kg of drug; type: ADME, organism-based; conditions: in vivo, po
Rattus norvegicus [48] = assay: Ratio of Total electrolytic excretion of sodium and potassium in urine of rats after peroral administration of 259 uM/Kg of drug; type: ADME, organism-based; conditions: in vivo, po

N=C(N)NC(=O)c1nc(Cl)c(N)nc1N [AMILORIDE]
Excretion K+ (Canis familiaris [1]): 0.4 m equiv
V (Rattus norvegicus [2]): 9.4 mL
Excretion Na+ (Rattus norvegicus [3]): 2.17 m equiv
Excretion Na+ (Rattus norvegicus [4]): 0.73 m equiv
Excretion Na+ (Rattus norvegicus [5]): 1.65 m equiv
Excretion Na+ (Rattus norvegicus [6]): 2.27 m equiv
Excretion Cl- (Rattus norvegicus [7]): 1.73 m equiv
V (Rattus norvegicus [8]): 12.6 mL
Excretion Na+ (Rattus norvegicus [9]): 1.33 m equiv
V (Rattus norvegicus [10]): 9.1 mL
Excretion Cl- (Rattus norvegicus [11]): 1.86 m equiv
Excretion K+ (Rattus norvegicus [12]): 0.05 m equiv
V (Rattus norvegicus [13]): 13.9 mL
V (Canis familiaris [14]): 59 mL
Ratio (Canis familiaris [15]): 45.2 [Na+]/[K+]
Excretion Cl- (Rattus norvegicus [16]): 1.14 m equiv
Excretion Cl- (Rattus norvegicus [17]): 1.43 m equiv
Ratio (Canis familiaris [18]): 30.8 [Na+]/[K+]
Ratio (Canis familiaris [19]): 7.8 [Na+]/[K+]
Excretion Cl- (Rattus norvegicus [20]): 0.78 m equiv
Excretion K+ (Rattus norvegicus [21]): 0.17 m equiv
Excretion K+ (Rattus norvegicus [22]): 0.36 m equiv
Excretion K+ (Rattus norvegicus [23]): 0.07 m equiv
Excretion Cl- (Canis familiaris [24]): 4.3 m equiv
Excretion K+ (Rattus norvegicus [25]): 0.05 m equiv
Excretion Cl- (Rattus norvegicus [26]): 1.29 m equiv
Ratio (Canis familiaris [27]): 2 [Na+]/[K+]
Excretion K+ (Rattus norvegicus [28]): 0.1 m equiv
V (Rattus norvegicus [29]): 4.8 mL
Excretion Na+ (Rattus norvegicus [30]): 1.77 m equiv
Excretion Na+ (Canis familiaris [31]): 9.5 m equiv
V (Rattus norvegicus [32]): 7.2 mL
Ratio (Canis familiaris [33]): 38.8 [Na+]/[K+]

C1CCCC(/N=C(/NC2CCCCCCC2)N2CCOCC2)CCC1
V (Rattus norvegicus [34]): 5 mL
Excretion Cl- (Rattus norvegicus [35]): 1.5 m equiv
V (Rattus norvegicus [36]): 11.8 mL
Ratio (Rattus norvegicus [37]): 5.5
Excretion K+ (Rattus norvegicus [38]): 0.16 m equiv
V (Rattus norvegicus [39]): 8.7 mL
Ratio (Rattus norvegicus [40]): 7.1
Excretion K+ (Rattus norvegicus [41]): 0.26 m equiv
Excretion Cl- (Rattus norvegicus [42]): 1.05 m equiv
Excretion Na+ (Rattus norvegicus [43]): 1.45 m equiv
Excretion Cl- (Rattus norvegicus [44]): 1.99 m equiv
Excretion Na+ (Rattus norvegicus [45]): 1.17 m equiv
Excretion Na+ (Rattus norvegicus [46]): 1.89 m equiv
Excretion K+ (Rattus norvegicus [47]): 0.27 m equiv
Ratio (Rattus norvegicus [48]): 7.5
